Legend:
Test in all cases: NCI60 cell line screen (SRB)
Type in all cases: cell-based, human
HOP-92 = settings: HOP-92, Non-Small Cell Lung Cancer, 48 h
Procedure: (§1) This panel implements the NCI60 cell line screen, including leukemia, non-small cell lung cancer, colon cancer, central nervous system cancer, melanoma, ovarian cancer, renal cancer, prostate cancer and breast cancer. The cell lines tested are specified in Table 3.
(§2) Generally, the human tumor cell lines of the cancer screening panel are grown in RPMI 1640 medium containing 5% fetal bovine serum and 2 mM L-glutamine. For a typical screening experiment, cells are inoculated into 96 well microtiter plates in 100 μL at plating densities ranging from 5,000 to 40,000 cells/well depending on the doubling time of individual cell lines. After cell inoculation, the microtiter plates are incubated at 37° C., 5% CO2, 95% air and 100% relative humidity for 24 h prior to addition of experimental drugs. After 24 h, two plates of each cell line are fixed in situ with TCA, to represent a measurement of the cell population for each cell line at the time of drug addition (Tz). Experimental drugs are solubilized in dimethyl sulfoxide at 400-fold the desired final maximum test concentration and stored frozen prior to use. At the time of drug addition, an aliquot of frozen concentrate is thawed and diluted to twice the desired final maximum test concentration with complete medium containing 50 μg/ml gentamicin. Additional four, 10-fold or ½ log serial dilutions are made to provide a total of five drug concentrations plus control. Aliquots of 100 μl of these different drug dilutions are added to the appropriate microtiter wells already containing 100 μl of medium, resulting in the required final drug concentrations.
(§3) Following drug addition, the plates are incubated for an additional 48 h at 37° C., 5% CO2, 95% air, and 100% relative humidity. For adherent cells, the assay is terminated by the addition of cold TCA. Cells are fixed in situ by the gentle addition of 50 μl of cold 50% (w/v) TCA (final concentration, 10% TCA) and incubated for 60 minutes at 4° C. The supernatant is discarded, and the plates are washed five times with tap water and air dried. Sulforhodamine B (SRB) solution (100 μl) at 0.4% (w/v) in 1% acetic acid is added to each well, and plates are incubated for 10 minutes at room temperature. After staining, unbound dye is removed by washing five times with 1% acetic acid and the plates are air dried. Bound stain is subsequently solubilized with 10 mM trizma base, and the absorbance is read on an automated plate reader at a wavelength of 515 nm. For suspension cells, the methodology is the same except that the assay is terminated by fixing settled cells at the bottom of the wells by gently adding 50 μl of 80% TCA (final concentration, 16% TCA). Using the seven absorbance measurements (time zero, Tz, control growth, (control), and test growth in the presence of drug at the five concentration levels (Ti)), the percentage growth is calculated at each of the drug concentrations levels. Percentage growth inhibition is calculated as:
(§4) [(Ti−Tz)/(C−Tz)]×100 for concentrations for which Ti>/=Tz
(§5) [(Ti−Tz)/Tz]×100 for concentrations for which Ti<Tz.

NCI/ADR-RES = settings: Breast Cancer, 48 h
Procedure: as §1, §2, §3, §4, §5

SF-268 = settings: SF-268, CNS Cancer, 48 h
Procedure: as §1, §2, §3, §4, §5

TK-10 = settings: TK-10, Renal Cancer, 48 h
Procedure: as §1, §2, §3, §4, §5

UACC-62 = settings: UACC-62, Melanoma, 48 h
Procedure: as §1, §2, §3, §4, §5

K-562 = settings: K-562, Leukemia, 48 h
Procedure: as §1, §2, §3, §4, §5

HT-29 = settings: HT-29, Colon Cancer, 48 h
Procedure: as §1, §2, §3, §4, §5

786-0 = settings: 786-0, Renal Cancer, 48 h
Procedure: as §1, §2, §3, §4, §5

IGROV1 = settings: IGROV1, Ovarian Cancer, 48 h
Procedure: as §1, §2, §3, §4, §5

SK-MEL-5 = settings: SK-MEL-5, Melanoma, 48 h
Procedure: as §1, §2, §3, §4, §5

SF-539 = settings: SF-539, CNS Cancer, 48 h
Procedure: as §1, §2, §3, §4, §5

ACHN = settings: Renal Cancer, 48 h
Procedure: as §1, §2, §3, §4, §5

PC-3 = settings: PC-3, Prostate Cancer, 48 h
Procedure: as §1, §2, §3, §4, §5

EKVX = settings: Non-Small Cell Lung Cancer, 48 h
Procedure: as §1, §2, §3, §4, §5

M14 = settings: M14, Melanoma, 48 h
Procedure: as §1, §2, §3, §4, §5

HCC-2998 = settings: HCC-2998, Colon Cancer, 48 h
Procedure: as §1, §2, §3, §4, §5

HCT-116 = settings: HCT-116, Colon Cancer, 48 h
Procedure: as §1, §2, §3, §4, §5

DU-145 = settings: DU-145, Prostate Cancer, 48 h
Procedure: as §1, §2, §3, §4, §5

NCI-H226 = settings: NCI-H226, Non-Small Cell Lung Cancer, 48 h
Procedure: as §1, §2, §3, §4, §5

SNB-75 = settings: SNB-75, CNS Cancer, 48 h
Procedure: as §1, §2, §3, §4, §5

LOX IMVI = settings: Melanoma, 48 h
Procedure: as §1, §2, §3, §4, §5

BT-459 = settings: BT-459, Breast Cancer, 48 h
Procedure: as §1, §2, §3, §4, §5

HCT-15 = settings: HCT-15, Colon Cancer, 48 h
Procedure: as §1, §2, §3, §4, §5

HL-60 = settings: HL-60, Leukemia, 48 h
Procedure: as §1, §2, §3, §4, §5

RPMO-8226 = settings: RPMO-8226, Leukemia, 48 h
Procedure: as §1, §2, §3, §4, §5

Compound `COc1ccc(CCNC2=CC3=NCCc4c[nH]c(c43)C2=O)cc1OC.O=C(O)C(F)(F)F` [Compound 20] has a GI50 (HOP-92; Homo sapiens) of 1.03 µM, a GI50 (NCI/ADR-RES; Homo sapiens) of 12.4 µM and a GI50 (SF-268; Homo sapiens) of less than 0.01 µM. The GI50 (TK-10; Homo sapiens) was 5.1 µM, the GI50 (UACC-62; Homo sapiens) was 2.17 µM and the GI50 (K-562; Homo sapiens, K562) was 16.9 µM. For the same compound, the GI50 (HT-29; Homo sapiens) was 2.54 µM, the GI50 (786-0; Homo sapiens) was 5.43 µM and the GI50 (IGROV1; Homo sapiens, IGROV-1) was 4.24 µM. It also gave a GI50 (SK-MEL-5; Homo sapiens) of 1.33 µM, a GI50 (SF-539; Homo sapiens) of 3.28 µM and a GI50 (ACHN; Homo sapiens) of 4.21 µM. It also gave a GI50 (PC-3; Homo sapiens) of 7.62 µM, a GI50 (EKVX; Homo sapiens) of 3.08 µM and a GI50 (M14; Homo sapiens) of 2.26 µM. It also gave a GI50 (HCC-2998; Homo sapiens) of 2.35 µM, a GI50 (HCT-116; Homo sapiens) of 2.4 µM and a GI50 (DU-145; Homo sapiens) of 2.81 µM. For the same compound, the GI50 (NCI-H226; Homo sapiens) was 1.06 µM, the GI50 (SNB-75; Homo sapiens) was 5.22 µM and the GI50 (LOX IMVI; Homo sapiens) was 2.34 µM. It also gave a GI50 (BT-459; Homo sapiens) of 4.53 µM, a GI50 (HCT-15; Homo sapiens) of 2.65 µM and a GI50 (HL-60; Homo sapiens) of 3.14 µM.
For `CNC1=CC2=NCCc3c[nH]c(c32)C1=O` [Compound 4a], the GI50 (HOP-92) was 1.28 µM, the GI50 (NCI/ADR-RES) was 9.33 µM and the GI50 (SF-268) was 2.09 µM. The GI50 (TK-10) was 15.4 µM, the GI50 (UACC-62) was 2.49 µM and the GI50 (K-562) was 2.19 µM. It also gave a GI50 (HT-29) of 2.54 µM, a GI50 (786-0) of 10.5 µM and a GI50 (IGROV1) of 2.9 µM. It also gave a GI50 (SK-MEL-5) of 1.45 µM, a GI50 (SF-539) of 2.39 µM and a GI50 (ACHN) of 13.1 µM. For the same compound, the GI50 (PC-3) was 3.61 µM, the GI50 (RPMO-8226) was 5.99 µM and the GI50 (EKVX) was 2.2 µM. For the same compound, the GI50 (M14) was 2.57 µM, the GI50 (HCC-2998) was 4.91 µM and the GI50 (HCT-116) was 2.94 µM. The GI50 (DU-145) was 2.29 µM, the GI50 (NCI-H226) was 11.1 µM and the GI50 (SNB-75) was 1.38 µM. It also gave a GI50 (LOX IMVI) of 3.43 µM, a GI50 (BT-459) of 7.38 µM and a GI50 (HCT-15) of 5.09 µM. It also gave a GI50 (HL-60) of 2.54 µM.
`O=C(O)C(F)(F)F.O=C1C(NCc2ccc(F)cc2)=CC2=NCCc3c[nH]c1c32` [Compound 28] was tested, and the GI50 (HOP-92; Homo sapiens) was 1.68 µM, the GI50 (NCI/ADR-RES; Homo sapiens) was 3.11 µM and the GI50 (SF-268; Homo sapiens) was 1.66 µM. It also gave a GI50 (TK-10; Homo sapiens) of 3.19 µM, a GI50 (UACC-62; Homo sapiens) of 1.56 µM and a GI50 (K-562; Homo sapiens, K562) of 1.07 µM. It also gave a GI50 (HT-29; Homo sapiens) of 0.596 µM, a GI50 (786-0; Homo sapiens) of 3.45 µM and a GI50 (IGROV1; Homo sapiens, IGROV-1) of 1.43 µM. The GI50 (SK-MEL-5; Homo sapiens) was 0.325 µM, the GI50 (SF-539; Homo sapiens) was 1.74 µM and the GI50 (ACHN; Homo sapiens) was 2.04 µM. It also gave a GI50 (PC-3; Homo sapiens) of 1.57 µM, a GI50 (RPMO-8226; Homo sapiens) of 0.559 µM and a GI50 (EKVX; Homo sapiens) of 0.453 µM. For the same compound, the GI50 (M14; Homo sapiens) was 1.44 µM, the GI50 (HCC-2998; Homo sapiens) was 2.7 µM and the GI50 (HCT-116; Homo sapiens) was 0.715 µM. For the same compound, the GI50 (DU-145; Homo sapiens) was 1.08 µM, the GI50 (NCI-H226; Homo sapiens) was 2.34 µM and the GI50 (SNB-75; Homo sapiens) was 5.2 µM. It also gave a GI50 (LOX IMVI; Homo sapiens) of 1.57 µM, a GI50 (BT-459; Homo sapiens) of 3.14 µM and a GI50 (HCT-15; Homo sapiens) of 1.48 µM. For the same compound, the GI50 (HL-60; Homo sapiens) was 1.53 µM.

— patent US20100144779A1, “Marine Alkalod Makaluvamines and Derivatives Thereof” (THE UAB RESEARCH FOUNDATION, priority 2007, published 2010)
